One data set relates to Tg-MYOCY437H mice. Nature of the data set: Outflow facility in Tg-MYOCY437H mouse eyes (Example 19). Type of data set: in vivo. On the procedure: To investigate whether corticosteroids affect outflow facility in Tg-MYOCY437H mice, animals received bilateral injections (20 μl) with either triamcinolone acetonide (TA) (40 mg/ml, Kenalog-40; Bristol-Myers Squibb, NY, USA) suspension or phosphate-buffered saline (PBS) (Gibco, ThermoFisher Scientific, Waltham, Mass., USA) subconjunctivally using a 100 μL Hamilton syringe with a 26-gauge needle (Precision Glide, Becton Dickinson & CO, Franklin Lakes, N.J., USA). They were euthanized one week later for outflow facility measurement.
To investigate whether tPA can affect outflow facility in Tg-MYOCY437H mice, and determine whether tPA enzymatic action is necessary for such an effect, intravitreal injections were performed using a 10 μL Hamilton syringe with 36-gauge stainless steel needles (WPI Inc, Sarasota, Fla., USA). […] Animals were sacrificed either two or five days after intravitreal injections for outflow facility measurement. […]
Mouse eyes were enucleated immediately after euthanasia. Outflow facility was determined using a microfluidic flow sensor (0.07-1.5 uL/min, MFS1; Elveflow, Paris, France) and constant pressure method, as previously described (Hu, Barron et al. 2019). […] Any eyes that developed visible leaks or that had pressure-flow correlations with […] were excluded from analysis but were used for RNA quantification.

In data set [1] the test system is C57BL/6J mice. Nature of the data set: Outflow facility in TA and protein treated C57BL/6J mouse eyes (Example 13). The following applies: TA five days before intravitreal protein (2 μl, 5 μg/μl); two days after injection. It counts as in vivo. On the procedure:
C57BL/6J mice were divided into two groups:
(§1) 1) Animals receiving bilateral steroid (TA) injection subconjunctivally five days prior to protein injection (FIG. 10b) and 2) Animals not receiving subconjunctival steroids (FIG. 10c).
(§2) 1) Animals that received unilateral intravitreal injection with 2 μl of tPA (5 μg/μl, Actilyse; Boehringer Ingelheim, Ingelheim am Rhein, Germany) while the contralateral eye received 2 μl of BSA (5 μg/μl; Gold Biotechnology, St Louis, Mo., USA), and 2) Animals that received unilateral intravitreal injections with 2 μl of non-enzymatically active tPA (NE-tPA/S478A-tPA) (5 μg/μl; Innovative Research, Novi, Mich., USA) while the contralateral eye received 2 μl of BSA. Animals were euthanized two days after intravitreal injection.
(§3) Outflow facility determination: Mouse eyes were enucleated immediately after euthanasia. Outflow facility was determined using a constant pressure method, as previously described. Pressure was raised in steps of 4 cmH2O, from 8 cmH2O (5.88 mmHg) to 32 cmH2O (23.54 mmHg) by increasing the height of a column of fluid of BSS. […] Flow was constantly measured via a microfluidic flow sensor (0.07-1.5 uL/min, MFS1; Elveflow, Paris, France). […] Any eyes that developed visible leaks during outflow facility determination, or that had pressure-flow correlations with R^2<0.9, were excluded from analysis but were used for RNA quantification.

The test system of data set [2] is C57BL/6J mice. In words: Outflow facility in protein treated C57BL/6J eyes not exposed to steroids (Example 15). Type of data set: in vivo, mouse. The following applies: C57BL/6J not exposed to steroids, intravitreal protein. The method, then:
as §1, §2
as §3, with “BSS. Steady state was initially achieved after 10 minutes.” for “BSS.”

The conditions of data set [3]: intravitreal use; toxicity attributed to arginine in commercial preparations; cited from earlier work.
Data set [4] deals with sheep of the Corriedale breed. Nature of the data set: Steroid-induced IOP elevation in sheep, intravitreal tPA (Examples 3, 4). Type of data set: in vivo. The method, then: Protocol 1. 8 sheep of the Corriedale breed were treated with prednisolone acetate three times a day in both eyes, leading to elevated IOP. After one week, the animals received intravitreal injections of human recombinant tPA (100, 200, 500 and 1000 μg, two animals each) dissolved in balanced salt solution (BSS) in one eye. IOP was monitored for 19 more days while the animals continued to receive treatment with prednisolone. Periodic slit lamp examination was also performed.
Protocol 2. In a second set of experiments, arginine was added to the BSS vehicle administered to the left eye to control for the relatively high concentration of the amino acid in the commercially available tPA lyophilisate. In these experiments all right eyes received 0.1 mg tPA, which concomitantly delivered 4.23 mg of arginine into the vitreous, and the left eye received this same amount of arginine, absent the tPA. On Day 1, prednisolone treatments were also begun simultaneously on both eyes.
Methods. In this experiment, the inventor sought to detect the effects of tPA treatment on prevention of steroid-induced IOP elevation. In 4 sheep tPA was injected in one eye (100 μg) and they were started on prednisolone acetate three times a day in both eyes. Animals were monitored for 11 days on continuous treatment.

A further data set relates to Mmp-2, Mmp-9, Mmp-13. Nature of the data set: Mmp expression in TA and protein treated C57BL/6J eyes (Example 13). It counts as in vivo, mouse. The following applies: vs BSA treated controls.
In the next data set the test system is PlatKO mice. Nature of the data set: Outflow facility in protein treated PlatKO mouse eyes (Example 14). It counts as in vivo. The following applies: intravitreal protein. On the procedure: PlatKO and Mmp-9KO mice were also not given steroids prior to protein injections (FIG. 10c). Within each cohort, animals were divided into two groups:
as §2
as §3, with “BSS. Steady state was initially achieved after 10 minutes.” for “BSS.”

Data set [5] concerns Mmp-2, Mmp-9, Mmp-13, Plat. In words: Mmp and Plat expression in protein treated C57BL/6J eyes not exposed to steroids (Example 15). Type of data set: in vivo, mouse. The following applies: C57BL/6J not exposed to steroids.

On to tissue plasminogen activator [tPA], for which the “improvement of outflow facility” value with Tg-MYOCY437H mice is recorded as roughly 31%. Besides, the “outflow facility, mean±standard deviation” value with C57BL/6J mice [1] is on record as 105.3±35.8×10^−5 μl/min/mmHg; with C57BL/6J mice [2] it was 102.7±19.5×10^−5 μl/min/mmHg; with PlatKO mice (no steroid, two days), 89±27×10^−5 μl/min/mmHg. In addition, the “doses with reported retinal toxicity” value in data set [3] is 50 to 100 µg. In addition, the “prevention of steroid-induced IOP elevation” value in data set [4] (100 μg in one eye, concurrent with prednisolone, 11 days) is on record as “prevented IOP elevation”. The ocular observations result in data set [4] (intravitreal tPA, prednisolone-treated sheep, some eyes) was “Transient injection and corneal clouding”. Moreover, the “IOP after tPA” value in data set [4] (within 24 h, all intravitreal doses tested (100-1000 μg), prednisolone continued) is listed as 14.1(±1.1) mmHg. Also, the “Mmp-2, Mmp-9 and Mmp-13 expression” value with Mmp-2, Mmp-9, Mmp-13 is listed as “significant upregulation”. For the same substance, in the data set on PlatKO mice, the “increase in outflow facility compared to BSA treated eyes” value came out at 46%. In addition, in data set [5], the “endogenous Plat expression” value is reported as “did not cause significant changes”. Also, the “gene expression changes in Mmp-2, Mmp-9 and Mmp-13” value in data set [5] (vs BSA) was “not significantly different”.

(Values after US20210220450A1, “TREATMENT OF AN IOP CONDITION” (The Research Foundation for The State University of New York, priority 2013, published 2021).)
